Where two headings read alike, the source gives them in different places.
Key:
833K solid tumor cells = assay: Growth inhibition, SRB assay, 833K; assay type: cell-based; conditions: Homo sapiens, Table 8, 833K
Protocol: Cells were platted on day 1, drug was added on day 2, and XTT assays (for HL-60, MT-2, MT-4 leukemic cells) or SRB assays (for 833K and SK-Br-3 solid tumor cells) were carried out on day 5.

[1] = test system: Lewis lung adenocarcinoma; assay: Anticancer activity in BDF mice bearing Lewis lung adenocarcinoma; assay type: in vivo, mouse
Protocol: ^a Tumor (4 × 10^6 cells) was inoculated S.C. Treatment
started on day 4, I.P., QDX5. Control had 4 mice and each dose had 3 mice
Tumor sizes were evaluated on day 7, day 10 and day 14 after beginning of […]

sarcoma 180 = assay: Antitumor activity against sarcoma 180 in B6D2F1 mice, b.i.d.x5; assay type: in vivo, mouse
Text: ^a Tumor (3 × 10^6 cells) was inoculated S.C. on day -3.
Antitumor treatment started on day 1, b.i.d.X5, IP.

[2] = test system: Chinese hamster lung cells (DC-3F); assay: Cytotoxicity, DC-3F; assay type: cell-based; conditions: for IC50 / IC90: Cricetulus griseus, DC3F; for IC90: read-out: Cytotoxic Concentration IC90
Text: (§1) | cell growth by 50% (IC50) in μM.

B-16 melanoma = assay: Antitumor activity against B-16 melanoma in mice (s.c. tumor, i.p. treatment); assay type: in vivo, mouse
Protocol: ^a Tumor (2 × 10^6 cells) was inoculated s.c. Treatment
started day 4, QD × 5, i.p.; control had nine mice, and each dose
two mice; tumor size was evaluated on Day 7 after the beginning of
started day 4, I.P., QD × 5; control had 3 mice, and each dose had
mice; Tumor size was evaluated on day 7 after the beginning of treatment.

[3] = test system: Human testicular teratocarcinoma cells (833K); assay: Cytotoxicity, 833K; assay type: cell-based; conditions: for IC50 / IC90: Homo sapiens, 833K; for IC90: read-out: Cytotoxic Concentration IC90
Text: as §1

[4] = Table 12, 0.15 mg/kg IP b.i.d.X5, Day 7
[5] = Table 12, 0.15 mg/kg IP b.i.d.X5, Day 14
[6] = Table 12, 0.2 mg/kg IP b.i.d.X5, Day 7
[7] = Table 12, 0.2 mg/kg IP b.i.d.X5, Day 14
[8] = Table 12, 0.3 mg/kg IP b.i.d.X5, Day 7
[9] = Table 12, 0.3 mg/kg IP b.i.d.X5, Day 14
[10] = Table 6, 0.2 mg/kg i.p. QD×5, day 7
[11] = Table 6, 0.5 mg/kg i.p. QD×5, day 7
[12] = Table 6, 2.0 mg/kg i.p. QD×5, day 7

Q: How did the IC50 (833K solid tumor cells) turn out when `CO[C@@]12[C@H](COC(N)=O)C3=C(C(=O)C(C)=C(N)C3=O)N1C[C@@H]1N[C@@H]12` [mitomycin C] was run?
A: 300 nM

Q: And the tumor inhibition ([1]; 0.8 mg/kg i.p. QDx5, day 14, Lewis lung adenocarcinoma)?
A: 56.3%

Q: And the “Average Tumor Volume (T/C)” value ([1]; Table 7, 0.4 mg/kg i.p. QDX5, Day 7)?
A: 0.490

Q: And the “Average Tumor Volume (T/C)” value ([1]; Table 7, 0.4 mg/kg i.p. QDX5, Day 10)?
A: 0.411

Q: What about the “Average Tumor Volume (T/C)” value ([1]; Table 7, 0.4 mg/kg i.p. QDX5, Day 14) of the same compound?
A: 0.515

Q: What about the “Average Tumor Volume (T/C)” value ([1]; Table 7, 0.8 mg/kg i.p. QDX5, Day 7) of the same compound?
A: 0.356

Q: What about the “Average Tumor Volume (T/C)” value ([1]; Table 7, 0.8 mg/kg i.p. QDX5, Day 10) of the same compound?
A: 0.363

Q: And the “Average Tumor Volume (T/C)” value ([1]; Table 7, 0.8 mg/kg i.p. QDX5, Day 14)?
A: 0.437

Q: And the mortality ([1]; Table 7, 2.0 mg/kg i.p. QDX5)?
A: All of three mice died on day 8 or day 9

Q: What about the “Average Tumor Volume (T/C)” value ([1]; Table 7, 2.0 mg/kg i.p. QDX5, Day 7) of the same compound?
A: 0.169

Q: And the “AWC (average weight change)” value (sarcoma 180; [4])?
A: -0.6 g

Q: What about the “Avg Tumor Volume (T/C)” value (sarcoma 180; [4]) of the same compound?
A: 0.650

Q: And the “AWC (average weight change)” value (sarcoma 180; [5])?
A: +0.2 g

Q: What about the “Avg Tumor Volume (T/C)” value (sarcoma 180; [5]) of the same compound?
A: 0.814

Q: And the “AWC (average weight change)” value (sarcoma 180; [6])?
A: +0.8 g

Q: And the “Avg Tumor Volume (T/C)” value (sarcoma 180; [6])?
A: 0.538

Q: And the “AWC (average weight change)” value (sarcoma 180; [7])?
A: -0.6 g

Q: And the “Avg Tumor Volume (T/C)” value (sarcoma 180; [7])?
A: 0.485

Q: What about the “AWC (average weight change)” value (sarcoma 180; [8]) of the same compound?
A: -1.8 g

Q: And the “Avg Tumor Volume (T/C)” value (sarcoma 180; [8])?
A: 0.249

Q: And the “AWC (average weight change)” value (sarcoma 180; [9])?
A: -1.0 g

Q: What about the “Avg Tumor Volume (T/C)” value (sarcoma 180; [9]) of the same compound?
A: 0.394

Q: And the IC50 ([2]; Table 2, DC-3F, read-out: concentration required to inhibit cell growth by 50% (IC50))?
A: 81 nM

Q: And the IC50 ([2]; Table 4, DC-3F, read-out: Cytotoxic Concentration IC50)?
A: 81.2 nM

Q: And the IC90 ([2]; Table 4, DC-3F)?
A: 374 nM

Q: And the IC50 ([2]; Table 13, DC-3F, read-out: Cytotoxic Concentration IC50)?
A: 59 nM

Q: What about the IC90 ([2]; Table 13, DC-3F) of the same compound?
A: 166 nM

Q: And the “Cytotoxic Concentration IC95” value ([2]; Table 4, DC-3F)?
A: 629 nM

Q: What about the “ratio of IC50 to EQI-6 (in parentheses)” value ([2]; Table 4, DC-3F, EQI-6 = (1)) of the same compound?
A: 45.1 ×

Q: What about the “ratio of IC90 to EQI-6 (in parentheses)” value ([2]; Table 4, DC-3F, EQI-6 = (1)) of the same compound?
A: 34 ×

Q: What about the “ratio of IC95 to EQI-6 (in parentheses)” value ([2]; Table 4, DC-3F, EQI-6 = (1)) of the same compound?
A: 31.6 ×

Q: What about the “Cytotoxic Concentration IC95” value ([2]; Table 13, DC-3F) of the same compound?
A: 235 nM

Q: And the tumor inhibition (B-16 melanoma; 0.5 mg/kg i.p. QDx5, B-16 melanoma)?
A: 24.6%

Q: And the “AVE TUMOR VOLUME (T/C)” value (B-16 melanoma; [10])?
A: 0.952

Q: What about the “AWC (average weight change)” value (B-16 melanoma; [10]) of the same compound?
A: -1.9 g

Q: What about the “AVE TUMOR VOLUME (T/C)” value (B-16 melanoma; [11]) of the same compound?
A: 0.756

Q: What about the “AWC (average weight change)” value (B-16 melanoma; [11]) of the same compound?
A: -0.9 g

Q: And the “AVE TUMOR VOLUME (T/C)” value (B-16 melanoma; [12])?
A: 0.143

Q: And the “AWC (average weight change)” value (B-16 melanoma; [12])?
A: +0.4 g

Q: What about the IC50 ([3]; Table 2, 833K (Testicular), read-out: concentration required to inhibit cell growth by 50% (IC50)) of the same compound?
A: 318 nM

Q: And the IC50 ([3]; Table 4, 833k, read-out: Cytotoxic Concentration IC50)?
A: 318 nM

Q: What about the IC90 ([3]; Table 4, 833k) of the same compound?
A: 1530 nM

Q: What about the IC50 ([3]; Table 15, 833K, read-out: Cytotoxic Concentration IC50) of the same compound?
A: 394 nM

Q: And the IC90 ([3]; Table 15, 833K)?
A: 2290 nM

Q: And the “Cytotoxic Concentration IC95” value ([3]; Table 4, 833k)?
A: 2610 nM

Q: What about the “ratio of IC50 to EQI-6 (in parentheses)” value ([3]; Table 4, 833k, EQI-6 = (1)) of the same compound?
A: 45.4 ×

Q: What about the “ratio of IC90 to EQI-6 (in parentheses)” value ([3]; Table 4, 833k, EQI-6 = (1)) of the same compound?
A: 61.2 ×

Q: And the “ratio of IC95 to EQI-6 (in parentheses)” value ([3]; Table 4, 833k, EQI-6 = (1))?
A: 66.9 ×

Q: What about the “Cytotoxic Concentration IC95” value ([3]; Table 15, 833K) of the same compound?
A: 4155 nM
